The text below walks through data of patent US20130309768A1, “METHOD FOR CULTURING HUMAN PLURIPOTENT STEM CELLS” (NATIONAL INSTITUTE OF BIOMEDICAL INNOVATION, priority 2011, published 2013).

The subject of assay [1] is human iPS cell line Tic (JCRB1331). Nature of the assay: Culture with protein kinase C peptide inhibitor, alkaline phosphatase staining. In kind it is cell-based. The following applies: fourth day, FIG. 9. The method, then:
Media comprising the activin-containing supplement+hESF-grow medium or the activin-free supplement+hESF-grow medium with fibronectin coating described in Example 3 and 0, 1, 2.5, 5, or 10 μM each of myristoylated protein kinase C peptide inhibitor (Myr. […]) (from Promega Corporation) added thereto were prepared, and used as first media containing a protein kinase C inhibitor and second media containing a protein kinase C inhibitor.
Human iPS cell line Tic (JCRB1331) was dispersed in the first medium containing a protein kinase C inhibitor and culturing was started. 60 hours after starting the culturing of the cell line Tic, a medium change into the second medium containing a protein kinase C inhibitor was conducted. Twice of medium changes were further conducted every 24 hours. On the fourth day after starting the culturing, the cells were fixed with 4.5 mM citric acid, 2.25 mM sodium citrate, 3 mM sodium chloride, 65% methanol and 4% paraformaldehyde for five minutes. Alkaline phosphatase staining was conducted with FastRed substrate kit (from Sigma Chemical Co.) according to the guidance of the manufacturer.

Another assay relates to human ES cells. The following applies: cited from earlier work.
The test system of assay [2] is human ES cell line KhES-1. Nature of the assay: Cell adhesion to ECM-coated microplates (crystal violet, absorbance 595 nm). Type of assay: cell-based. The following applies: coating 0.01-10 μg/cm^2, hESF9 medium, two days culture; FIG. 1(a). The procedure:
(§1) The inventors studied on the substitution of ECMs such as collagen I, gelatin, laminin, fibronectin, and the like, which are recently used as a cell support in place of feeder cells, from animal-derived materials to animal product-free ingredients. Studies were conducted with human ES cell line KhES-1 (Laboratory of embryonic stem Cell research Center, Institute for Frontier Medical Sciences, Kyoto University), and human iPS cell line Tic (JCRB1331) (JSCB cell bank, National Institute of Biomedical Innovation); and the embryonal cancer cell line PA-1 (JCRB9061) (JSCB cell bank, National institute of Biomedical Innovation) was used as a comparative example.
(§2) Using 96 well microplates (from Corning Incorporated), each of collagen I (from Nitta Gelatin Inc.), gelatin (from Sigma Chemical Co.), laminin (from Sigma Chemical Co.), and fibronectin (from Sigma Chemical Co.) was treated at 37° C. for 3 hours, with avoiding being dried, to coat the microplates with each at 0.01, 0.05, 0.1, 0.5, 1, 5 and 10 μg/cm^2. The aforementioned hESF9 medium was added, and then human ES cell line KhES-1 and human iPS cell line Tic (JCRB1331), and embryonal cancer cell line PA-1 (JCRB9061) were seeded at […], after counting their cell numbers. After culturing the cells for two days (or culturing the embryonal cancer cell line PA-1 (JCRB9061) for one hour), the cells were fixed and nuclei of adhered cells were stained with 0.4% crystal violet (from Sigma Chemical Co.) dissolved in methanol for 30 minutes. The microplates were washed and then dried. The cells were lysed with 0.1 M sodium citrate dissolved in 50% methanol, and absorbance at 595 nm was measured with a microplate reader (model 550, from Bio-Rad Laboratories, Inc.).

The test system of assay [3] is human iPS cell line Tic (JCRB1331). The description is as above. The following applies: coating 0.01-10 μg/cm^2, hESF9 medium, two days culture; FIG. 1(b). In kind it is cell-based. The procedure:
as §1, §2

A further assay concerns pluripotent stem cells. Nature of the assay: Cytokeratin expression of cells cultured on laminin. Type of assay: cell-based, human.
The test system of the next assay is murine ES cells. The following applies: serum-free medium; cited from earlier work.
Assay [4] deals with embryonal cancer cell line PA-1 (JCRB9061). Nature of the assay: Cell adhesion to ECM-coated microplates (comparative example). In kind it is cell-based. The following applies: hESF9 medium, one hour culture; FIG. 1(c). The method, then:
as §1, §2
Embryonal cancer cell line PA-1 (JCRB9061) was studied on the adhesion ability to the various ECNs described above.

The subject of a further assay is cell line H9 (WA09). Nature of the assay: Culture with fibronectin added to the medium, cell appearance. In kind it is cell-based, human. The following applies: 0, 20, 40, 80, 160, 320 μg/well tested; 9.6 cm^2 well, 3 mL medium; FIG. 8. The procedure:
In a 6 well plate (from Becton, Dickinson and Company), first media containing fibronectin were prepared by adding 10 μg/mL recombinant human insulin, 5 μg/mL recombinant human transferrin (apo), 10 μM 2-mercaptoethanol, 10 μM 2-ethanolamine, 20 nM sodium selenite, 9.4 μg/mL oleic acid complexed with 1 mg/mL recombinant human albumin, and 2 ng/mL recombinant human activin to the hESF-grow medium, and further adding 0, 20, 40, 80, 160, or 320 μg/well of bovine fibronectin to each well.
In a 6 well plate (from Becton, Dickinson and Company), second media containing fibronectin were prepared by adding 5 μg/mL recombinant human transferrin (apo), 10 μM 2-mercaptoethanol, 10 μM 2-ethanolamine, 20 nM sodium selenate and 9.4 μg/mL oleic acid complexed with 1 mg/mL recombinant albumin to the hESF-grow medium, and further adding 0, 20, 40, 80, 160, or 320 μg/well of bovine fibronectin to each well.
The cell line H9 (WA09) was cultured similarly to the culturing on fibronectin coating described above, except that the first medium and the second medium described in the above section on fibronectin coating were replaced with the first media containing fibronectin and the second media containing fibronectin, and cells were cultured at varying concentrations of fibronectin in respective wells. The area of 1 well in the used plate was 9.6 cm^2, and 3 mL each of the medium was added.

For assay [5], the system named is ERK (extracellular signal-regulated kinases). The following applies: addition of activin; cited from earlier work.

No end group written: not given here. *: point of attachment. Myristoyl = CCCCCCCCCCCCCC(=O)*

For “Myr. RFARKGALRQKNV (Myristoyl-RFARKGALRQKNV)”, in assay [1] (1 to 2.5 μM in medium), the proliferation entry is “increase in proliferation”. Besides, the “suppression of differentiation compared to no inhibitor” value in assay [1] (1 to 5 μM in medium) is “further suppression of differentiation”.

For the compound heparin, in the assay on human ES cells (added in the absence of FGF-2), the “proliferation of ES cells” value is on record as “promotes the proliferation”.

Regarding laminin, the adhesion ability entry in assay [2] and in [3] was “strongest adhesion ability” in each case. The cytokeratin expression entry in the assay with pluripotent stem cells was “express cytokeratin strongly”. Also, the “effect on undifferentiated state / differentiation” value with murine ES cells is on record as “act to promote the differentiation”.

For the compound `O=S(=O)(O)CCN1CCN(CCO)CC1` [HEPES], in the assay with human ES cells (added into serum-free medium), the “effect on the maintenance of human ES cells” value is reported as “very adverse effect”.

In the case of gelatin, the values for the adhesion ability entry in assay [2], in [3] and in assay [4] were “weak adhesion ability”, “weak adhesion ability” and “strongest adhesion ability”, respectively. Moreover, the “coating concentration at which adhesion ability was strongest” value in [4] is reported as “about 10 μg/cm^2”.

fibronectin: the adhesion ability entry in assay [2] and in assay [3] was “strongest adhesion ability” each time. Moreover, in the assay on cell line H9 (WA09), the “amount of fibronectin at which the undifferentiated state was best maintained” value is given as 80 μg/well. The “effect on undifferentiated state / differentiation” value with murine ES cells is “act to promote the differentiation”.

With collagen, the adhesion ability entry in assay [2] is listed as “weak adhesion ability”; in assay [3], “weak adhesion ability”; in assay [4] it was “strongest adhesion ability”. The “coating concentration at which adhesion ability was strongest” value in assay [4] was “about 10 μg/cm^2”.

Take activin: in the assay with human ES cells (addition of activin), the “differentiation induction into the nerve or mesendoderm” value is listed as “promotes differentiation induction”. For the same compound, the ERK activation entry in assay [5] is reported as “activates ERK”.
